Source: patent publication US20130052268A1, “COMPOSITIONS AND METHODS FOR TREATMENT OF PARKINSON'S DISEASE” (THE MCLEAN HOSPITAL CORPORATION, priority 2010, published 2013)

Legend:
Type in all cases: cell-based, mouse
SHH signaling [1] = test: Wnt1 induction of Lmx1a in the presence of the SHH signaling inhibitor cyclopamine, qPCR at NP stage; settings: Wnt1-retrovirus transduced NP cells, 1 mM cyclopamine for 3 days
Procedure: FIG. 10A-B show interaction between SHH and other factors. […] J1 ES-derived NP cells were transduced with empty- or Wnt1-retrovirus and cultured in the absence or presence of […] cyclopamine for 3 days, and analyzed by qPCR at NP stage. […] NP stage cells were treated with 500 ng/ml of SHH or […] Cyclopamine for 6 hours and analyzed by qPCR.
(§1) It was previously shown that SHH treatment could ventralize chick intermediate midbrain explants, accompanied by induction of Lmx1a and other ventral midbrain phenotype (Andersson et al., 2006b). […] ES-derived NP cells were treated with 500 ng/ml SHH or 1 μM cyclopamine for 6 hours and analyzed by qPCR.

SHH signaling [2] = test: Acute treatment of ES-derived NP cells with SHH or cyclopamine, qPCR; settings: 6 hours
Procedure: For all other samples, total RNA was prepared using TriReagent (Sigma, St. Louis, Mo.) followed by further purification using RNeasy mini kit (Qiagen, Valencia, Calif.). For RT-PCR analysis, 2 ? g of RNA were transcribed into cDNA with the SuperScript™ II RT (Invitrogen, Carlsbad, Calif.) and oligo (dT) primers. For quantitative analysis of the expression level of mRNAs, real-time PCR analyses using SYBR green I were performed using a DNA engine Opticon™ (MJ Research, Waltham, Mass.). To reduce non-specific signals, oligonucleotides amplifying small amplicons were designed using the MacVector software (Oxford Molecular Ltd.: primers sequences are available upon request). Amplifications were performed in 25 μl containing 0.5 μM of each primer,
0.5×SYBR Green I (Molecular Probes, Oreg.), and 2 μl of 5 fold diluted cDNA. Fifty PCR cycles were performed with a temperature profile consisting of 95° C. for 30 sec, 55° C. for 30 sec, 72° C. for 30 sec, and 79° C. for 5 sec. The dissociation curve of each PCR product was determined to ensure that the observed fluorescent signals were only from specific PCR products. After each PCR cycle, the fluorescent signals were detected at 79° C. to melt primer dimers (Tms of all primer dimers used in this study were <76° C.). A standard curve was constructed using plasmid DNAs containing the GAPDH gene (from 10^2 to 10^8 molecules). The fluorescent signals from specific PCR products were normalized against that of the β-actin gene, and then relative values were calculated by setting the normalized value of control as 1 (or 100 in some cases). All reactions were repeated using more than three independent samples.
as §1

ES cell-derived NP cells = test: siRNA knock down of Lmx1a and Lmx1b in ES cell-derived NP and ND stage cells
Procedure: For siRNA transfection, NP stage cells were treated with 50 ng/ml FGF8 and 100 ng/ml SHH for 4 days to induce/proliferate mDA NPs, followed by transfection with siRNA using the Nucleofector (Amaxa, Walkersville, Md.) mouse stem cell kit with the program A-033 according to the manufacturer's instruction. Per transfection, 5×10^6 NP cells were treated with 480 pmol of siRNA, diluted in 10 ml of N3bFGF media (or N3 media for ND stage transfection) and plated in PLO/FN-coated multiwell plate, resulting in a final siRNA concentration of 48 nM. For ND stage transfection, cells were further differentiated in N3 media for 2 days before transfection. Multiple Stealth siRNAs were purchased from Invitrogen (Carlsbad, Calif.), screened for gene silencing efficiency by cotransfection with Lmx1a or Lmx1b-expressing plasmids and only siRNAs showing efficient gene silencing (>95%) was used for the experiments. The sequences of the siRNAs are as follows: the Lmx1a sense strand […] (SEQ ID NO: 1); the Lmx1a antisense strand […] (SEQ ID NO: 2); the Lmx1b sense strand […] (SEQ ID NO: 3); the Lmx1b antisense strand […] (SEQ ID NO: 4). Thirty hours after transfection, cells were fixed for immunocytochemistry or harvested for RNA preparation.
To further study the redundant function between Lmx1a and Lmx1b, experiments were carried out to knock down these genes using gene-specific siRNA approach. ES cell-derived NP cells were treated with SHH and FGF8 for 4 days to induce/proliferate mDA NPs, and then transfected with control siRNA, Lmx1a siRNA, Lmx1b siRNA or both Lmx1a/1b siRNAs using Nucleofector (Amaxa) and analyzed after 30 hours. […] This insignificant effect is in contrast with the robust induction effect observed in overexpression experiment (FIG. 5A). This can be explained by incomplete knockdown by siRNA and/or nonphysiological overexpression effect caused by retroviral transduction. […] Since Pitx3^+ cells were not yet detectable at this NP stage, the gene knockdown experiment was repeated at ND stage cells.

[3] = NP cells, 500 ng/ml SHH or 1 μM cyclopamine
[4] = ND stage, 30 hrs after transfection
[5] = NP stage, 30 hours after transfection
[6] = NP stage, 30 hours after transfection, 48 nM siRNA

Compound | induction of Lmx1a gene expression by Wnt1 (SHH signaling [1]) | Lmx1a mRNA levels (SHH signaling [2]; [3]) | Nurr1 mRNA levels (SHH signaling [2]; [3]) | TH mRNA levels (SHH signaling [2]; [3]) | mRNA level of Gli1 (SHH signaling [2]; NP stage cells, 500 ng/ml SHH or μM Cyclopamine) | mRNA level of Lmx1a (ES cell-derived NP cells; [4]) | Nurr1 gene expression (ES cell-derived NP cells; [5]) | Wnt1 gene expression (ES cell-derived NP cells; [5]) | mRNA level of Lmx1a (ES cell-derived NP cells; [6]) | mRNA level of Lmx1b (ES cell-derived NP cells; [4]) | mRNA level of Lmx1b (ES cell-derived NP cells; [6])
CC1=C2C[C@H]3[C@@H](CC=C4C[C@@H](O)CC[C@@]43C)[C@@H]2CC[C@]12O[C@@H]1C[C@H](C)CN[C@H]1[C@H]2C [cyclopamine] | not affected | no significant changes | no significant changes | no significant changes | reduced | – | – | – | – | – | –
Lmx1a siRNA: Stealth siRNA, sense GAGGAGAGCAUUCAAGGCCUCGUUU (SEQ ID NO: 1), antisense SEQ ID NO: 2 (antisense AAACGAGGCCUUGAAUGCUCUCCUC; Stealth modification, further chemistry not given here) | – | – | – | – | – | significantly reduced | did not have significant effect | did not have significant effect | significantly reduced | – | –
Lmx1b siRNA: Stealth siRNA, sense GGAACGACUCCAUCUUCCACGAUAU (SEQ ID NO: 3), antisense SEQ ID NO: 4 (antisense AUAUCGUGGAAGAUGGAGUCGUUCC; Stealth modification, further chemistry not given here) | – | – | – | – | – | – | did not have significant effect | did not have significant effect | – | significantly reduced | significantly reduced
